Test results taken from patent publication US12011444B2, “N-substituted indole derivatives as PGE2 receptor modulators” (Idorsia Pharmaceuticals Ltd, priority 2015, dated 2024).

How the values were obtained:
PTGER2 (EP2) = PTGER2 (EP2) (Homo sapiens (Human), UniProt P43116); assay: hEP2 b-arrestin assay (PathHunter HEK 293 PTGER2 b-arrestin cells); format: cell-based
In short: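 HEK293 cells expressing ProLink-tagged EP2 and EA-fused β-arrestin 2 (enzyme fragment complementation) were seeded 24 h, pre-incubated with compound 15 min at 37 °C, then stimulated with 5 μM PGE2 (final) for 120 min.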

PTRGER4 (EP4) = PTRGER4 (EP4) (Homo sapiens (Human), UniProt P35408); assay: hEP4 b-arrestin assay (PathHunter HEK 293 PTGER4 b-arrestin cells); format: cell-based
Chain of PTRGER4 (EP4) (P35408 whole entry, looked up, the tested form may be a part): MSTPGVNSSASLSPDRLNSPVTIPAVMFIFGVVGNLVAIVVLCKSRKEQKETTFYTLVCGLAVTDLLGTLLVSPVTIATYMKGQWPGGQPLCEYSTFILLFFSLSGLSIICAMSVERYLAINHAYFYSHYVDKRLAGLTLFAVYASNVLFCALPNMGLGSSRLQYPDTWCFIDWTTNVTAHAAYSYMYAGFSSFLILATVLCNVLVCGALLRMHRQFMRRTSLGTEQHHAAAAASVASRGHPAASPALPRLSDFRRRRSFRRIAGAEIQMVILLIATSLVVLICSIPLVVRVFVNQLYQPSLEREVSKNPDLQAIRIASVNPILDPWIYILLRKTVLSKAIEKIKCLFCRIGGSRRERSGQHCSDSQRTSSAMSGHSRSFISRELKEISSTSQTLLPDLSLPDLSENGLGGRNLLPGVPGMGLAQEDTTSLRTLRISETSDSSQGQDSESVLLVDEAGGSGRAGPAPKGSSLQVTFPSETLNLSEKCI
In short: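 Stably transfected HEK293 cells carrying EP4–ProLink and β-arrestin 2–EA (β-gal fragment complementation), pre-incubated with compound 15 min at 37 °C, then stimulated with PGE2 (20 nM final) for 120 min at 37 °C. Chemiluminescence read after 1 h detection reagent at room temperature; activity per concentration expressed as percent of DMSO control.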

[1] = antagonistic activity on hEP2, mean where measured multiple times
[2] = antagonistic activity on hEP4, mean where measured multiple times
[3] = hEP2 b-arrestin assay (values without asterisk)
[4] = hEP4 b-arrestin assay (values without asterisk)

Chain of PTGER2 (EP2) (P43116 whole entry, the tested form may be a part): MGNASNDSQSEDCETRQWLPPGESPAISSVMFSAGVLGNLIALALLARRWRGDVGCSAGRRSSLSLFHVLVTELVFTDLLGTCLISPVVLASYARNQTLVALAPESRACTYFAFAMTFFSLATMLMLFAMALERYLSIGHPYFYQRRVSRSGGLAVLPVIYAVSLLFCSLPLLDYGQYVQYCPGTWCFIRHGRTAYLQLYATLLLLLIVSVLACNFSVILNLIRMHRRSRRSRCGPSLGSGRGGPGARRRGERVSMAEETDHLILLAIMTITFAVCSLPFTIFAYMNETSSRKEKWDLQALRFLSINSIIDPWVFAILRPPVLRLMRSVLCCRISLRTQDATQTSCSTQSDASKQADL

Compound | IC50 (PTGER2 (EP2); [1]) | IC50 (PTRGER4 (EP4); [2]) | IC50 (PTGER2 (EP2); [3]) | IC50 (PTRGER4 (EP4); [4])
CCOc1cc(-c2cc(NCCn3c(C)cc4c(OC)cc(Cl)c(F)c43)ncn2)sc1C(=O)O [Example 864, 5-{6-[2-(6-Chloro-7-fluoro-4-methoxy-2-methyl-indol-1-yl)-ethylamino]-pyrimidin-4-yl}-3-ethoxy-thiophene-2-carboxylic acid] |  |  | 0.003 µM | 0.005 µM
Cc1cc2ccccc2n1CCNc1cc(-c2ccc(C(=O)O)c(CC(C)C)c2)ncn1 [compound 119, 2-Isobutyl-4-{6-[2-(2-methyl-indol-1-yl)-ethylamino]-pyrimidin-4-yl}-benzoic acid] | 0.018 µM | 0.941 µM |  | 
CCOc1cc(-c2cc(NCCn3c(C#N)cc4c(OC)cc(F)c(F)c43)ncn2)ccc1OCC(=O)O [Example 944, (4-{6-[2-(2-Cyano-6,7-difluoro-4-methoxy-indol-1-yl)-ethylamino]-pyrimidin-4-yl}-2-ethoxy-phenoxy)-acetic acid] |  |  | 0.016 µM | 0.007 µM
CCCSc1cc(-c2cc(NCCn3c(C#N)cc4c(OC)cc(F)cc43)ncn2)ccc1C(=O)O [Example 936, 4-{6-[2-(2-Cyano-6-fluoro-4-methoxy-indol-1-yl)-ethylamino]-pyrimidin-4-yl}-2-propylsulfanyl-benzoic acid] |  |  | 0.018 µM | 0.008 µM
CCOc1cc(-c2cc(NCCn3c(C#N)cc4c(OC)ccc(F)c43)ncn2)ccc1NCC(=O)O [Example 861, (4-{6-[2-(2-Cyano-7-fluoro-4-methoxy-indol-1-yl)-ethylamino]-pyrimidin-4-yl}-2-ethoxy-phenylamino)-acetic acid] |  |  | 0.005 µM | 0.002 µM
N#Cc1c(F)c2ccccc2n1CCNc1cc(-c2cc(C(F)(F)F)c(C(=O)O)s2)ncn1 [Example 840, 5-{6-[2-(2-Cyano-3-fluoro-indol-1-yl)-ethylamino]-pyrimidin-4-yl}-3-trifluoromethyl-thiophene-2-carboxylic acid] |  |  | 0.048 µM | 0.047 µM
CCNC(=O)Nc1ccc(-c2cc(NCCn3c(C#N)cc4c(OC)ccc(F)c43)ncn2)cc1OC [Example 982, 1-(4-{6-[2-(2-Cyano-7-fluoro-4-methoxy-indol-1-yl)-ethylamino]-pyrimidin-4-yl}-2-methoxy-phenyl)-3-ethyl-urea] |  |  | 0.018 µM | 0.003 µM
COc1ccc(F)c2c1cc(C#N)n2CCNc1cc(-c2cc(C(F)(F)F)c(C(=O)O)s2)ncn1 [Example 804, 5-{6-[2-(2-Cyano-7-fluoro-4-methoxy-indol-1-yl)-ethylamino]-pyrimidin-4-yl}-3-trifluoromethyl-thiophene-2-carboxylic acid] |  |  | 0.003 µM | 0.002 µM
Cc1cc2c(Cl)ccc(F)c2n1CCNc1cc(-c2cc(Cl)c(C(=O)O)s2)ncn1 [compound 14, 3-Chloro-5-{6-[2-(4-chloro-7-fluoro-2-methyl-indol-1-yl)-ethylamino]-pyrimidin-4-yl}-thiophene-2-carboxylic acid] | 0.004 µM | 0.082 µM |  | 
CCOC(=O)c1csc(-c2cc(NCCn3c(C#N)cc4c(OC)ccc(F)c43)ncn2)c1 [Example 1009, 5-{6-[2-(2-Cyano-7-fluoro-4-methoxy-indol-1-yl)-ethylamino]-pyrimidin-4-yl}-thiophene-3-carboxylic acid ethyl ester] |  |  | 0.02 µM | 0.011 µM
Cc1cccc2c1cc(C)n2CCNc1cc(-c2cc(OC(C)C)c(C(=O)O)s2)ncn1 [Example 879, 5-{6-[2-(2,4-Dimethyl-indol-1-yl)-ethylamino]-pyrimidin-4-yl}-3-isopropoxy-thiophene-2-carboxylic acid] |  |  | 0.004 µM | 0.036 µM
COc1cccc2c1cc(C)n2CCNc1cc(-c2ccc(-c3cscn3)cc2)ncn1 [compound 98, [2-(4-Methoxy-2-methyl-indol-1-yl)-ethyl]-[6-(4-thiazol-4-yl-phenyl)-pyrimidin-4-yl]-amine] | 0.007 µM | 0.23 µM |  | 
CCOc1cc(-c2cc(NCCn3c(C#N)cc4c(OC)ccc(F)c43)ncn2)sc1C(=O)NCCO [Example 1026, 5-{6-[2-(2-Cyano-7-fluoro-4-methoxy-indol-1-yl)-ethylamino]-pyrimidin-4-yl}-3-ethoxy-thiophene-2-carboxylic acid (2-hydroxy-ethyl)-amide] |  |  | 0.021 µM | 0.001 µM
COc1ccc(F)c2c1cc(C)n2CCNc1cc(-c2ccc(CO)c(F)c2)ncn1 [compound 28, (2-Fluoro-4-{6-[2-(7-fluoro-4-methoxy-2-methyl-indol-1-yl)-ethylamino]-pyrimidin-4-yl}-phenyl)-methanol] | 0.017 µM | 0.249 µM |  | 
CCOc1cc(-c2cc(NCCn3c(C)cc4c(Cl)cc(Cl)c(F)c43)ncn2)sc1C(=O)O [Example 868, 5-{6-[2-(4,6-Dichloro-7-fluoro-2-methyl-indol-1-yl)-ethylamino]-pyrimidin-4-yl}-3-ethoxy-thiophene-2-carboxylic acid] |  |  | 0.001 µM | 0.007 µM
COc1ccc(F)c2c1cc(C)n2CCNc1cc(-c2cc(Cl)c(C(=O)O)s2)ncn1 [compound 114] | 0.004 µM | 0.027 µM |  | 
COc1cc(F)cc2c1cc(C)n2CCNc1cc(-c2cc(Cl)c(C(=O)O)s2)ncn1 [compound 38, 3-Chloro-5-{6-[2-(6-fluoro-4-methoxy-2-methyl-indol-1-yl)-ethylamino]-pyrimidin-4-yl}-thiophene-2-carboxylic acid] | 0.005 µM | 0.039 µM |  | 
CCOc1cc(-c2cc(NCCn3c(C#N)cc4c(OC)ccc(F)c43)ncn2)sc1CC(=O)O [Example 854, (5-{6-[2-(2-Cyano-7-fluoro-4-methoxy-indol-1-yl)-ethylamino]-pyrimidin-4-yl}-3-ethoxy-thiophen-2-yl)-acetic acid] |  |  | 0.232 µM | 0.193 µM
CCOc1cc(-c2cc(NCCn3c(C)cc4c(OC)ccc(F)c43)ncn2)ccc1-c1nc(C)c(C)o1 [Example 848, {6-[4-(4,5-Dimethyl-oxazol-2-yl)-3-ethoxy-phenyl]-pyrimidin-4-yl}-[2-(7-fluoro-4-methoxy-2-methyl-indol-1-yl)-ethyl]-amine] |  |  | 0.02 µM | 0.321 µM
CCOc1cc(-c2cc(NCCn3c(C)cc4c(Cl)cccc43)ncn2)sc1C(=O)O [compound 108] | 0.001 µM | 0.015 µM |  | 

Continued, values first:

IC50 (PTGER2 (EP2); [1]) | IC50 (PTRGER4 (EP4); [2]) | IC50 (PTGER2 (EP2); [3]) | IC50 (PTRGER4 (EP4); [4]) | Compound
0.003 µM | 0.029 µM |  |  | CCOc1cc(-c2cc(NCCn3c(C)cc4c(OC)ccc(Cl)c43)ncn2)sc1C(=O)O [compound 256]
0.052 µM | 0.688 µM |  |  | CCOc1cc(-c2cc(NCCn3c(C)cc4c(Cl)c(F)cc(Cl)c43)ncn2)ccc1C(=O)O [compound 351]
0.472 µM | 0.991 µM |  |  | CCOc1cc(-c2cc(NCCn3c(C)cc4c(C)cc(F)c(Cl)c43)ncn2)ccc1C(=O)O [compound 210]
0.023 µM | 0.287 µM |  |  | COc1ccc(F)c2c1cc(C)n2CCNc1cc(-c2ccc(-c3ncc[nH]3)cc2)ncn1 [compound 192, [2-(7-Fluoro-4-methoxy-2-methyl-indol-1-yl)-ethyl]-{6-[4-(1H-imidazol-2-yl)-phenyl]-pyrimidin-4-yl}-amine]
0.005 µM | 0.621 µM |  |  | CCCc1cc(-c2cc(NCCn3c(C)cc4c(F)ccc(Cl)c43)ncn2)cc(Cl)c1C(=O)O [compound 342, 2-Chloro-4-{6-[2-(7-chloro-4-fluoro-2-methyl-indol-1-yl)-ethylamino]-pyrimidin-4-yl}-6-propyl-benzoic acid]
0.018 µM | 0.708 µM |  |  | COc1ccc(F)c2c1cc(C)n2CCNc1cc(-c2ccc(C(=O)O)c3[nH]ccc23)ncn1 [compound 323, 4-{6-[2-(7-Fluoro-4-methoxy-2-methyl-indol-1-yl)-ethylamino]-pyrimidin-4-yl}-1H-indole-7-carboxylic acid]
0.012 µM | 0.896 µM |  |  | CCOc1cc(-c2cc(NCCn3c(C)cc4ccc(OC)cc43)ncn2)ccc1C(=O)O [compound 255]
0.063 µM | 0.354 µM |  |  | Cc1ccc(F)c2c1cc(C)n2CCNc1cc(-c2ccc(S(N)(=O)=O)c(C(F)(F)F)c2)ncn1 [compound 379]
0.005 µM | 0.153 µM |  |  | CCCc1cc(-c2cc(NCCn3c(C)cc4c(OC)cccc43)ncn2)ccc1C(=O)O [compound 271]
0.113 µM | 0.52 µM |  |  | Cc1ccc(F)c2c1cc(C)n2CCNc1cc(-c2ccc3[nH]cnc3c2)ncn1 [compound 164]
0.041 µM | 0.454 µM |  |  | CCc1cc(-c2cc(NCCn3c(C)cc4c(C)cc(F)cc43)ncn2)ccc1C(=O)O [compound 219]
0.159 µM | 0.968 µM |  |  | COc1ccc(F)c2c1cc(C)n2CCNc1cc(-c2ccc3c(c2)CCO3)ncn1 [compound 325]
0.004 µM | 0.192 µM |  |  | CCOc1cc(-c2cc(NCCn3c(C)cc4c(OC)cccc43)ncn2)ccc1CO [compound 127, (2-Ethoxy-4-{6-[2-(4-methoxy-2-methyl-indol-1-yl)-ethylamino]-pyrimidin-4-yl}-phenyl)-methanol]
0.003 µM | 0.009 µM |  |  | CCOc1cc(-c2cc(NCCn3c(C#N)cc4c(C)cc(F)cc43)ncn2)sc1C(=O)O [compound 249]
0.017 µM | 0.132 µM |  |  | CCc1cc(-c2cc(NCCn3c(C)cc4c(OC)cc(F)cc43)ncn2)ccc1C(=O)O [compound 283]
0.03 µM | 0.302 µM |  |  | Cc1ccc(F)c2c1cc(C)n2CCNc1cc(-c2ccc(-c3noc(=O)[nH]3)cc2)ncn1 [compound 185, 3-(4-{6-[2-(7-Fluoro-2,4-dimethyl-indol-1-yl)-ethylamino]-pyrimidin-4-yl}-phenyl)-4H-[1,2,4]oxadiazol-5-one]
0.057 µM | 0.66 µM |  |  | CNc1cc(-c2cc(NCCn3c(C)cc4c(F)ccc(OC)c43)ncn2)ccc1C(=O)O [compound 252]
